Laboratory results as given in ChEMBL document CHEMBL1126037, “4'-modified analogues of aristeromycin and neplanocin A: synthesis and inhibitory activity toward S-adenosyl-L-homocysteine hydrolase” (J Med Chem, 1992).
Calls of active or inactive are those of the source. The rule behind the calls is not given here.

Legend:
[1] = system: Adenosylhomocysteinase (Bos taurus)
[2] = target: Adenosylhomocysteinase (Homo sapiens) (UniProt P23526); conditions: Bos taurus
Description: Kinetic constant against bovine liver S-adenosyl-L-homocysteine hydrolase (AdoHcy); reversibleinhibitor

[3] = target: Adenosylhomocysteinase (Homo sapiens) (UniProt P23526); conditions: Bos taurus; remark: listed apart in the source
[4] = system: Adenosylhomocysteinase (Bos taurus); assay: Kinetic constant against bovine liver S-adenosyl-L-homocysteine hydrolase (AdoHcy); c = Inactive up to 100 uM
[5] = system: Adenosylhomocysteinase (Bos taurus); assay: Inhibitory activity against bovine liver S-adenosyl-L-homocysteine hydrolase (AdoHcy); c = Inactive up to 100 uM

Sequence of Adenosylhomocysteinase (Homo sapiens) (P23526 2-432 limits assumed): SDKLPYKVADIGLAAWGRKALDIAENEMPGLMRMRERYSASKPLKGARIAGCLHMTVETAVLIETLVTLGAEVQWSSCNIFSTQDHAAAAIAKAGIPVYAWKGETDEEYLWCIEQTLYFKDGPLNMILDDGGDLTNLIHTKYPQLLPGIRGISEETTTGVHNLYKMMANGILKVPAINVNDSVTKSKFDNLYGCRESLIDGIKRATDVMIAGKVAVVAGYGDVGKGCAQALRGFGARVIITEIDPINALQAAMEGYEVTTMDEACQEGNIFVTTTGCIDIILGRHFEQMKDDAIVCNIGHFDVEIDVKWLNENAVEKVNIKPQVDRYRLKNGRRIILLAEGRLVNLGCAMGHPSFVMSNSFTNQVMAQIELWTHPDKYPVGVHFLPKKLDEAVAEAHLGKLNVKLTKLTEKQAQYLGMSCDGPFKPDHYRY

Compound | k2 [1] | also measured
Nc1ncnc2c1ncn2[C@@H]1C[C@H](c2ccccc2)[C@@H](O)[C@H]1O | 0.01 min⁻¹ | 
Nc1ncnc2c1ncn2[C@@H]1C=C[C@@H](O)[C@H]1O | 0.043 min⁻¹ | 
Nc1ncnc2c1ncn2[C@@H]1C[C@H](CO)[C@@H](O)[C@H]1O |  | k2 [2]: Reversible inhibition
C=C[C@H]1C[C@@H](n2cnc3c(N)ncnc32)[C@H](O)[C@@H]1O | 0.053 min⁻¹ | 
CC1=C[C@@H](n2cnc3c(N)ncnc32)[C@H](O)[C@@H]1O | 0.09 min⁻¹ | 
Nc1ncnc2c1ncn2[C@@H]1C=C(CO)[C@@H](O)[C@H]1O |  | k2 [3]: 1.98 min⁻¹
C[C@H]1C[C@@H](n2cnc3c(N)ncnc32)[C@H](O)[C@@H]1O | 0.039 min⁻¹ | 
Nc1ncnc2c1ncn2[C@@H]1CC[C@@H](O)[C@H]1O | 0.109 min⁻¹ | 
C[C@@H]1C[C@@H](n2cnc3c(N)ncnc32)[C@H](O)[C@@H]1O | 0.025 min⁻¹ | 
CCC1=C[C@@H](n2cnc3c(N)ncnc32)[C@H](O)[C@@H]1O |  | k2 [4]: inactive; Ki [5]: Inactive
CC[C@H]1C[C@@H](n2cnc3c(N)ncnc32)[C@H](O)[C@@H]1O | 0.083 min⁻¹ | 
